Laboratory results published in the supplement of paper PMC10307832.

Tests used:
Experiment in all cases: relative viability (nuclei count vs DMSO), 5 days (fraction); higher = more cells survive
[1] = compound: Cc1nc(Nc2ncc(C(=O)Nc3c(C)cccc3Cl)s2)cc(N2CCN(CCO)CC2)n1 [Dasatinib] + Nc1ncn([C@H]2C[C@H](O)[C@@H](CO)O2)c(=O)n1 [Decitabine] (partner 2 µM)
Method in brief: (§1)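 For relative viability, nuclei counts in treated wells were divided by those in vehicle wells. Lung cancer cell lines had been pin-tool dosed in 1536-well plates the day after seeding and cultured for 5 days, then fixed and stained in one step (final 0.05% Triton X-100, 1% formaldehyde, 1 ug/ml Hoechst) and imaged at 4×. Doses were one drug alone or a fixed anchor-drug dose plus five library-drug doses (not always all listed) in √10 steps, and values are duplicate-plate medians.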

[2] = compound: C1CC1C(=O)NC2=NNC3=C2C=CC(=C3)C4=CC(=CC=C4)C(=O)NC5CC5 [XMD13-2] + Cc1nc(NC(=O)N2CCC[C@H]2C(N)=O)sc1-c1ccnc(C(C)(C)C(F)(F)F)c1 [Alpelisib] (partner 2 µM)
Method in brief: as §1

[3] = compound: Cc1ccc(C(=O)Nc2cccc(C(F)(F)F)c2)cc1Nc1cncc(C(N)=O)c1 [ALW-II-49-7] + COc1cc2c(Oc3ccc(NC(=O)C4(C(=O)Nc5ccc(F)cc5)CC4)cc3F)ccnc2cc1OCCCN1CCOCC1 [Foretinib] (partner 0.25 µM)
Method in brief: as §1

[4] = compound: Cc1ccc(C(=O)Nc2cccc(C(F)(F)F)c2)cc1Nc1cncc(C(N)=O)c1 [ALW-II-49-7] + Cc1nc(NC(=O)N2CCC[C@H]2C(N)=O)sc1-c1ccnc(C(C)(C)C(F)(F)F)c1 [Alpelisib] (partner 2 µM)
Method in brief: as §1

Cell Line | relative viability ([1]; first compound 0.005 µM) | relative viability ([1]; first compound 0.01581 µM) | relative viability ([1]; first compound 0.05 µM) | relative viability ([1]; first compound 0.1581 µM) | relative viability ([1]; first compound 0.5 µM) | relative viability ([2]; first compound 0.05 µM) | relative viability ([2]; first compound 0.1581 µM) | relative viability ([2]; first compound 0.5 µM) | relative viability ([2]; first compound 1.581 µM) | relative viability ([2]; first compound 5 µM) | relative viability ([3]; first compound 0.08 µM) | relative viability ([3]; first compound 0.253 µM) | relative viability ([3]; first compound 0.8 µM) | relative viability ([3]; first compound 2.53 µM) | relative viability ([3]; first compound 8 µM) | relative viability ([4]; first compound 0.08 µM) | relative viability ([4]; first compound 0.253 µM) | relative viability ([4]; first compound 0.8 µM) | relative viability ([4]; first compound 2.53 µM) | relative viability ([4]; first compound 8 µM)
HOP-62 | 0.218 | 0.227 | 0.261 | 0.23 | 0.191 | 0.848 | 0.516 | 1.03 | 1 | 0.664 | 1.22 | 1.14 | 1.17 | 0.935 | 0.837 | 1.05 | 1.13 | 1.14 | 0.499 | 0.955
LC-2-ad | 0.745 | 0.822 | 0.781 | 0.744 | 0.393 | 0.983 | 0.887 | 0.939 | 0.938 | 0.79 | 0.863 | 0.881 | 0.929 | 0.559 | 0.905 | 0.911 | 0.884 | 0.847 | 0.892 | 0.864
LCLC-97TM1 | 0.203 | 0.224 | 0.283 | 0.177 | 0.144 | 0.214 | 0.262 | 0.225 | 0.206 | 0.146 | 0.869 | 0.894 | 1.06 | 0.939 | 0.933 | 0.245 | 0.245 | 0.296 | 0.195 | 0.269
LCLC-103H | 0.69 | 0.7 | 0.737 | 0.625 | 0.446 | 0.91 | 0.979 | 0.981 | 0.959 | 0.851 | 0.707 | 0.832 | 0.926 | 0.735 | 0.77 | 0.933 | 0.968 | 0.993 | 1.14 | 0.972
LK-2 | 0.265 | 0.308 | 0.174 | 0.159 | 0.174 | 1.33 | 0.998 | 0.98 | 1.04 | 1.02 |  | 0.884 | 1.27 | 0.958 | 1.31 | 1.14 | 1.09 | 1.02 | 0.74 | 0.967
LOU-NH91 | 0.83 | 0.819 | 0.743 | 0.66 | 0.421 | 0.783 | 0.759 | 0.72 | 0.659 | 0.796 | 0.912 | 0.945 | 0.921 | 0.879 | 0.944 | 0.648 | 0.72 | 0.729 | 0.388 | 0.797
LU99A | 0.827 | 0.819 | 0.833 | 0.655 | 0.46 | 0.553 | 0.491 | 0.561 | 0.446 | 0.335 | 0.82 | 0.936 | 0.92 | 0.867 | 0.768 | 0.491 | 0.527 | 0.481 | 0.482 | 0.532
LXF-289 | 0.398 | 0.336 | 0.31 | 0.358 | 0.142 | 1.09 | 0.982 | 1.08 | 1.05 | 1.04 | 0.98 | 1.05 | 1 | 1.07 | 1.04 | 1.07 | 1.01 | 1.01 | 1.17 | 1.08
NCI-H23 | 0.273 | 0.293 | 0.286 | 0.27 | 0.236 | 0.731 | 0.676 | 0.752 | 0.669 | 0.806 | 0.923 | 1.01 | 1.06 | 0.993 | 1.03 | 0.692 | 0.803 | 0.613 | 0.726 | 0.985
NCI-H322M | 0.755 | 0.589 | 0.518 | 0.45 | 0.253 | 0.833 | 0.716 | 0.71 | 0.793 | 0.872 | 0.825 | 0.996 | 0.908 | 0.771 | 0.962 | 0.724 | 0.739 | 0.957 | 0.759 | 0.8
NCI-H358 | 0.211 | 0.173 | 0.169 | 0.127 | 0.146 | 1.06 | 0.774 | 0.843 | 0.822 | 0.529 | 0.691 | 0.658 | 0.575 | 0.809 | 0.689 | 0.718 | 0.802 | 0.925 | 0.965 | 0.902
NCI-H441 | 0.276 | 0.232 | 0.272 | 0.202 | 0.19 | 0.675 | 1.15 | 0.649 | 0.801 | 0.547 | 1.02 | 1.01 | 1.14 | 1.22 | 0.854 | 0.854 | 0.771 | 0.768 | 0.48 | 0.591
NCI-H460 | 0.568 | 0.444 | 0.352 | 0.29 | 0.286 | 0.653 | 0.586 | 0.498 | 0.468 | 0.492 | 1.09 | 1.05 | 0.84 | 1.02 | 0.899 | 0.513 | 0.542 | 0.323 | 0.453 | 0.395
NCI-H520 | 0.524 | 0.38 | 0.266 | 0.177 | 0.175 | 0.921 | 0.954 | 0.967 | 0.861 | 0.49 | 0.904 | 0.697 | 0.971 | 0.777 | 0.555 | 0.799 | 0.865 |  | 0.964 | 0.954
NCI-H596 | 0.955 | 0.916 | 0.724 | 0.668 | 0.542 | 0.624 | 0.543 | 0.407 | 0.587 | 0.0287 | 0.949 | 0.902 | 0.886 | 0.841 | 0.937 | 0.443 | 0.513 | 0.497 | 0.469 | 0.438
NCI-H647 | 0.379 | 0.311 | 0.315 | 0.173 | 0.182 | 1.31 | 1.22 | 1.14 | 1.05 | 1.22 | 1.36 | 1.32 | 1.23 | 1.09 | 1.06 | 0.769 | 1.13 | 1.19 | 0.882 | 0.557
